Reference: patent publication US20060095978A1, “Screening assay” (priority 2002, published 2006)

Tests used:
Format in all cases: in vivo, mouse
[1] = test system: IFN-γ; experiment: Serum IFN-γ in OVA/OVA323-339 stimulated DO11.10 mice (ELISA); settings: for IFN-γ level in pg/ml serum on day 0 after 0 hours: 0 hours (before injection); for increase of INF-γ serum concentration: 90 μg per mouse
Procedure: (§1) Groups of six, 8-10 weeks old, male or female DO11.10 mice weighing between 20-22 g are obtained as described in Murphy K. M. et al. 1990, Science 250:1720-1722. The animals are maintained in Microvent positive air supply cages (22±1° C., 55±5% relative humidity, 50-70 changes of fresh air/hour and 12 hours day and night cycle) with sawdust bedding. Standard laboratory mouse chow (SNIFF, Soest, Germany) and drinking water is given ad libidum. The animals are used for the study after an adaptation period of 10-14 days and grouped (6 per group) in type II Macrolon cages one day before the experiment.
(§2) Groups of six DO11.10 mice are i.p. injected with 10 μg of ovalbumin (OVA, Sigma, St. Louis, USA) absorbed to 2 mg of Al(OH)3 (Alu Gel S; 2% Al(OH)3, Serva, Heidelberg, FRG) and diluted with saline to a volume of 0.2 ml or various amounts (1, 3, 10, 30, or 90 μg per mouse) of alum-precipitated OVA323-339 peptide (98% purity, piChem R&D, Graz Austria) in 0.2 ml on days 0 and 14. Before and at different time points on days 0 and 14 after the OVA or OVA323-339 peptide administration about 200 μl of blood are collected by puncture of the retro-orbital plexus under ether anesthesia.
The sera are collected and stored frozen at −20° C. until analyzed. […]
Murine IL-2, IFN-γ and IL-4 are analyzed by immunoassays (Quantikine R&D Systems, Minneapolis, Minn., USA). Results are expressed as pg per ml serum expressed as mean±SEM pg of the cytokine indicated per ml serum. Test and control groups are evaluated by Dunn test by Kruskall-Wallis One Way Anova using the SigmaStat® program. […]
Mice of the control group are injected with alum. Blood is collected before and at 2, 4, and 6 hours after the first peptide injection. INF-γ is determined in the sera by an ELISA. Results are expressed as mean pg per ml serum±SEM. […]

[2] = test system: IL-2; experiment: Serum IL-2 in OVA323-339 stimulated DO11.10 mice (ELISA)
Procedure: as §1, §2
The sera are collected and stored frozen at −20° C. until analyzed.
The Neoral solution is diluted further with tap water. Doses of 20, 40, and 80 mg/kg b.w. are administered in a volume of 0.2 ml. Animals in the control group receive the solvent alone.
Murine IL-2, IFN-γ and IL-4 are analyzed by immunoassays (Quantikine R&D Systems, Minneapolis, Minn., USA). Results are expressed as pg per ml serum expressed as mean±SEM pg of the cytokine indicated per ml serum. Test and control groups are evaluated by Dunn test by Kruskall-Wallis One Way Anova using the SigmaStat® program.
Animals of the control group are injected with alum. Blood is collected before and at 2 hours after the peptide injection. IL-2 is determined in the sera by an ELISA. Results are expressed as mean pg per ml serum±SEM.
Blood is collected 2 hours later and IFN-γ, IL-4 and IL-2 levels are determined in the sera by ELISAs. Results are expressed as mean pg per ml serum±SEM.

[3] = test system: IL-1β; experiment: Serum IL-1β in DO11.10 mice primed with OVA-peptide and challenged with LPS
Procedure: (§3) Animals are provided as described in Example 2a).
(§4) b) Administration of OVA323-339 (=OVA-peptide) and LPS Groups of six DO11.10 mice receive i.p. 30 μg of OVA323-339 peptide (98% purity, pi Chem R&D, Graz Austria) in 0.2 ml 0.9% saline per mouse. Control mice are injected i.p. with the same amount of saline.
(§5) 18 hours later the mice are challenged i.p. with 100, 300 or 500 μg LPS (E. coli 0111: B4 Sigma Vienna, Austria). At 2, 4 and 6 hours after the LPS administration about 200 μl of blood are collected by puncture of the retro-orbital plexus under ether anesthesia. The sera are collected and stored frozen at −20° until analyzed.
(§6) Murine IL-1α, IL-1β and TNF-α serum levels are determined by ELISAs (IL-1α and TNF-α, Bender MedSystems, Vienna Austria; IL-1β, Quantikine R&D Systems, Minneapolis, Minn.). Results are expressed as pg per ml serum. Differences in the serum cytokines concentrations between the different experimental groups are examined for statistical significance by the Mann-Whitney U test, two tailed. Results are expressed as the mean±SEM. p<0.05 is regarded as significant.
Values of serum IL-1β responses in control DO11.10 mice challenged with various doses of LPS (=NaCl+LPS) and in mice primed with the OVA-peptide 18 hours prior to the LPS challenge (=OVA+LPS) are given in TABLE 7. The serum IL-1β levels are expressed as mean pg per ml serum±SEM.

[4] = test system: TNF-α; experiment: Serum TNF-α in DO11.10 mice primed with OVA-peptide and challenged with LPS
Procedure: as §3, §4, §5, §6
The effects of various doses of LPS (100, 300, or 500 μg/mouse) on the production of TNF-α in the serum of non-sensitized DO11.10 mice or mice sensitized by i.p. injection of OVA-peptide (30 μg/mouse, 18 hours prior to LPS challenge) are given in TABLE 8. The TNF-α serum levels are expressed as mean pg per ml serum±SEM.

OVA323-339: peptide derived from chicken ovalbumin containing amino acids from position 323 to 339 (KISQAVHAAHAEINEAG; UniProt P01012 323-339, looked up, fragment)
IFN-γ level in pg/ml serum on day 0 after 0 hours ([1]; 1 μg OVA323-339 i.p.): 11.181 ± 1.288 pg/mL | IFN-γ level in pg/ml serum on day 0 after 2 hours ([1]; 1 μg OVA323-339 i.p.): 18.047 ± 3.944 pg/mL | IFN-γ level in pg/ml serum on day 0 after 4 hours ([1]; 1 μg OVA323-339 i.p.): 41.034 ± 12.394 pg/mL | IFN-γ level in pg/ml serum on day 0 after 6 hours ([1]; 1 μg OVA323-339 i.p.): 15.925 ± 4.594 pg/mL | IFN-γ level in pg/ml serum on day 0 after 0 hours ([1]; 3 μg OVA323-339 i.p.): 8.230 ± 1.430 pg/mL | IFN-γ level in pg/ml serum on day 0 after 2 hours ([1]; 3 μg OVA323-339 i.p.): 62.724 ± 7.939 pg/mL | IFN-γ level in pg/ml serum on day 0 after 4 hours ([1]; 3 μg OVA323-339 i.p.): 63.023 ± 12.462 pg/mL | IFN-γ level in pg/ml serum on day 0 after 6 hours ([1]; 3 μg OVA323-339 i.p.): 25.962 ± 8.858 pg/mL | increase of serum INF-γ levels compared to alum control ([1]; 3 μg, at 2 and 4 hours): about 11 fold | IFN-γ level in pg/ml serum on day 0 after 0 hours ([1]; 10 μg OVA323-339 i.p.): 0.374 ± 0.324 pg/mL | IFN-γ level in pg/ml serum on day 0 after 2 hours ([1]; 10 μg OVA323-339 i.p.): 65.927 ± 23.147 pg/mL | IFN-γ level in pg/ml serum on day 0 after 4 hours ([1]; 10 μg OVA323-339 i.p.): 202.260 ± 48.410 pg/mL | IFN-γ level in pg/ml serum on day 0 after 6 hours ([1]; 10 μg OVA323-339 i.p.): 24.047 ± 9.455 pg/mL | rise in INF-γ serum levels compared to alum alone ([1]; 10 μg OVA323-339 peptide 2 weeks after 10 μg OVA): ~25 fold | IFN-γ level in pg/ml serum on day 0 after 0 hours ([1]; 30 μg OVA323-339 i.p.): 3.988 ± 0.700 pg/mL | IFN-γ level in pg/ml serum on day 0 after 2 hours ([1]; 30 μg OVA323-339 i.p.): 207.727 ± 62.093 pg/mL | IFN-γ level in pg/ml serum on day 0 after 4 hours ([1]; 30 μg OVA323-339 i.p.): 176.807 ± 79.268 pg/mL | IFN-γ level in pg/ml serum on day 0 after 6 hours ([1]; 30 μg OVA323-339 i.p.): 187.325 ± 62.370 pg/mL | increase of serum IFN-γ levels ([1]; 30 μg per mouse, at 2, 4 and 6 hours): 32-38 fold | IFN-γ level in pg/ml serum on day 0 after 2 hours ([1]; 90 μg OVA323-339 i.p.): 407.899 ± 106.513 pg/mL | IFN-γ level in pg/ml serum on day 0 after 4 hours ([1]; 90 μg OVA323-339 i.p.): 413.925 ± 65.247 pg/mL | IFN-γ level in pg/ml serum on day 0 after 6 hours ([1]; 90 μg OVA323-339 i.p.): 514.918 ± 72.758 pg/mL | increase of INF-γ serum concentration ([1]; at 2 and 4 hours): 75 fold | increase of INF-γ serum concentration ([1]; at 6 hours): 94 fold | increase of serum IFN-γ levels ([1]; 10 g (printed) of peptide, at 4 hours): about 40 fold | increase in IFN-γ levels in sera ([1]; first injection of 10 μg peptide, 3 hours after): 50 fold | change in serum INF-γ levels ([1]; primary stimulation, 1 μg per mouse, only at 4 hours): small increase | rise of INF-γ levels after second sensitization ([1]; second sensitization, same dose (10 μg) of peptide): same magnitude | IL-2 levels in pg/ml serum on day 0 after 2 hours ([2]; 3 μg OVA323-339 i.p.): 327.513 ± 76.331 pg/mL | IL-2 levels in pg/ml serum on day 0 after 2 hours ([2]; 10 μg OVA323-339 i.p.): 2866.966 ± 361.613 pg/mL | IL-2 levels in pg/ml serum on day 0 after 2 hours ([2]; 30 μg OVA323-339 i.p.): 2926.303 ± 381.536 pg/mL | IL-2 levels in pg/ml serum on day 0 after 2 hours ([2]; 90 μg OVA323-339 i.p.): 4841.034 ± 108.352 pg/mL | IL-1β in OVA-peptide primed versus unprimed mice ([3]; 100 μg LPS, 2 hours): 1.6 fold | IL-1β in OVA-peptide primed versus unprimed mice ([3]; 100 μg LPS, 4 hours): 1.7 fold | IL-1β in OVA-peptide primed versus unprimed mice ([3]; 100 μg LPS, 6 hours): 7.8 fold | IL-1β in OVA-peptide primed versus unprimed mice ([3]; 300 μg LPS, 2 hours): 1.9 fold | IL-1β in OVA-peptide primed versus unprimed mice ([3]; 300 μg LPS, 4 hours): 2.7 fold | IL-1β in OVA-peptide primed versus unprimed mice ([3]; 300 μg LPS, 6 hours): 3.0 fold | IL-1β in OVA-peptide primed versus unprimed mice ([3]; 500 μg LPS, 2 hours): 3.5 fold | IL-1β in OVA-peptide primed versus unprimed mice ([3]; 500 μg LPS, 4 hours): 2.2 fold | IL-1β in OVA-peptide primed versus unprimed mice ([3]; 500 μg LPS, 6 hours): 5.7 fold | TNF-α in OVA-primed versus unprimed mice ([4]; 100 μg LPS, 2 hours): 9.7 fold | change in TNF-α levels, OVA-primed versus unprimed ([4]; 100 μg LPS, 4 hours): no significant changes | TNF-α in OVA-peptide primed versus unprimed mice ([4]; 300 μg LPS, 2 hours): 7.8 fold | difference in TNF-α levels, OVA-peptide primed versus unprimed ([4]; 300 μg LPS, 4 hours): no difference | TNF-α in OVA-peptide primed versus unprimed mice ([4]; 500 μg LPS, 2 hours): 5.2 fold
